PubChem BioAssay (NCI)
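1) Cells in 96-well plates. 2) Compound, 48 h, 5 concentrations. 3) Linear interpolation between surrounding doses. 4) Unreached endpoint = highest concentration. At the GI50, growth is halved. The concentration for full growth arrest is given as TGI.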

Tests used:
Test in all cases: growth of human tumour cells (NCI), 48 h
786-0 renal = system: 786-0 renal
A498 renal = system: A498 renal
A549 NSCLC = system: A549 NSCLC
ACHN renal = system: ACHN renal
BT-549 breast = system: BT-549 breast
CAKI-1 renal = system: CAKI-1 renal
CCRF-CEM leukemia = system: CCRF-CEM leukemia
COLO 205 colon = system: COLO 205 colon
DU-145 prostate = system: DU-145 prostate
EKVX NSCLC = system: EKVX NSCLC
HCC-2998 colon = system: HCC-2998 colon
HCT-116 colon = system: HCT-116 colon
HCT-15 colon = system: HCT-15 colon
HL-60(TB) leukemia = system: HL-60(TB) leukemia
HOP-62 NSCLC = system: HOP-62 NSCLC
HOP-92 NSCLC = system: HOP-92 NSCLC
HS 578T breast = system: HS 578T breast
HT29 colon = system: HT29 colon
IGROV1 ovarian = system: IGROV1 ovarian
K-562 leukemia = system: K-562 leukemia
KM12 colon = system: KM12 colon
LOX IMVI melanoma = system: LOX IMVI melanoma
M14 melanoma = system: M14 melanoma
MALME-3M melanoma = system: MALME-3M melanoma
MCF7 breast = system: MCF7 breast
MDA-MB-231 breast = system: MDA-MB-231 breast
MDA-MB-435 = system: MDA-MB-435
MOLT-4 leukemia = system: MOLT-4 leukemia
NCI-H226 lung = system: NCI-H226 lung
NCI-H23 lung = system: NCI-H23 lung
NCI-H460 lung = system: NCI-H460 lung
NCI-H522 lung = system: NCI-H522 lung
NCI/ADR-RES ovarian = system: NCI/ADR-RES ovarian
OVCAR-3 ovarian = system: OVCAR-3 ovarian
OVCAR-4 ovarian = system: OVCAR-4 ovarian
OVCAR-5 ovarian = system: OVCAR-5 ovarian
OVCAR-8 ovarian = system: OVCAR-8 ovarian
PC-3 prostate = system: PC-3 prostate
RPMI-8226 leukemia = system: RPMI-8226 leukemia
RXF 393 renal = system: RXF 393 renal
SF-268 CNS = system: SF-268 CNS
SF-295 CNS = system: SF-295 CNS
SF-539 CNS = system: SF-539 CNS
SK-MEL-2 melanoma = system: SK-MEL-2 melanoma
SK-MEL-28 melanoma = system: SK-MEL-28 melanoma
SK-MEL-5 melanoma = system: SK-MEL-5 melanoma
SK-OV-3 ovarian = system: SK-OV-3 ovarian
SN12C renal = system: SN12C renal
SNB-19 CNS = system: SNB-19 CNS
SNB-75 CNS = system: SNB-75 CNS
SR leukemia = system: SR leukemia
SW-620 colon = system: SW-620 colon
T-47D breast = system: T-47D breast
TK-10 renal = system: TK-10 renal
U251 CNS = system: U251 CNS
UACC-257 melanoma = system: UACC-257 melanoma
UACC-62 melanoma = system: UACC-62 melanoma
UO-31 renal = system: UO-31 renal

`O=C1NC(=O)c2c1c1c3ccccc3ccc1c1[nH]c3ccccc3c21` gave a GI50 (786-0 renal) of 1200 nM, a TGI (786-0 renal) of 16600 nM and a GI50 (A498 renal) of 491 nM. For the same compound, the TGI (A498 renal) was 2710 nM, the GI50 (A549 NSCLC) was 971 nM and the TGI (A549 NSCLC) was > 100000 nM. It also gave a GI50 (ACHN renal) of 336 nM, a TGI (ACHN renal) of 13200 nM and a GI50 (BT-549 breast) of 279 nM. It also gave a TGI (BT-549 breast) of 2330 nM, a GI50 (CAKI-1 renal) of 228 nM and a TGI (CAKI-1 renal) of 11700 nM. For the same compound, the GI50 (CCRF-CEM leukemia) was 457 nM, the TGI (CCRF-CEM leukemia) was > 68700 nM and the GI50 (COLO 205 colon) was 1300 nM. For the same compound, the TGI (COLO 205 colon) was > 100000 nM, the GI50 (DU-145 prostate) was 960 nM and the TGI (DU-145 prostate) was > 100000 nM. The GI50 (EKVX NSCLC) was 2040 nM, the TGI (EKVX NSCLC) was > 58400 nM and the GI50 (HCC-2998 colon) was 7650 nM. For the same compound, the TGI (HCC-2998 colon) was > 100000 nM, the GI50 (HCT-116 colon) was 852 nM and the TGI (HCT-116 colon) was > 100000 nM. The GI50 (HCT-15 colon) was 593 nM, the TGI (HCT-15 colon) was > 100000 nM and the GI50 (HL-60(TB) leukemia) was 233 nM. For the same compound, the TGI (HL-60(TB) leukemia) was > 100000 nM, the GI50 (HOP-62 NSCLC) was 925 nM and the TGI (HOP-62 NSCLC) was 17600 nM. It also gave a GI50 (HOP-92 NSCLC) of 857 nM, a TGI (HOP-92 NSCLC) of 7420 nM and a GI50 (HS 578T breast) of 1080 nM. The TGI (HS 578T breast) was > 31500 nM, the GI50 (HT29 colon) was 631 nM and the TGI (HT29 colon) was > 91100 nM. For the same compound, the GI50 (IGROV1 ovarian) was 529 nM, the TGI (IGROV1 ovarian) was > 56200 nM and the GI50 (K-562 leukemia) was 543 nM. The TGI (K-562 leukemia) was > 91100 nM, the GI50 (KM12 colon) was 115 nM and the TGI (KM12 colon) was > 100000 nM. The GI50 (LOX IMVI melanoma) was 1380 nM, the TGI (LOX IMVI melanoma) was > 100000 nM and the GI50 (M14 melanoma) was 322 nM. The TGI (M14 melanoma) was > 100000 nM, the GI50 (MALME-3M melanoma) was 207 nM and the TGI (MALME-3M melanoma) was 6010 nM. For the same compound, the GI50 (MCF7 breast) was 327 nM, the TGI (MCF7 breast) was > 100000 nM and the GI50 (MDA-MB-231 breast) was 1150 nM. For the same compound, the TGI (MDA-MB-231 breast) was > 100000 nM, the GI50 (MDA-MB-435) was 247 nM and the TGI (MDA-MB-435) was > 100000 nM. The GI50 (MOLT-4 leukemia) was 444 nM, the TGI (MOLT-4 leukemia) was 7480 nM and the GI50 (NCI-H226 lung) was 641 nM. The GI50 (NCI-H23 lung) was 699 nM, the TGI (NCI-H23 lung) was > 100000 nM and the GI50 (NCI-H460 lung) was 400 nM. It also gave a TGI (NCI-H460 lung) of 24400 nM, a GI50 (NCI-H522 lung) of 568 nM and a TGI (NCI-H522 lung) of 15600 nM. The GI50 (NCI/ADR-RES ovarian) was 1570 nM, the TGI (NCI/ADR-RES ovarian) was > 87000 nM and the GI50 (OVCAR-3 ovarian) was 2430 nM. It also gave a TGI (OVCAR-3 ovarian) of 19300 nM, a GI50 (OVCAR-4 ovarian) of 1790 nM and a TGI (OVCAR-4 ovarian) of 19600 nM. For the same compound, the GI50 (OVCAR-5 ovarian) was 1630 nM, the TGI (OVCAR-5 ovarian) was > 100000 nM and the GI50 (OVCAR-8 ovarian) was 1290 nM. The TGI (OVCAR-8 ovarian) was 24800 nM, the GI50 (PC-3 prostate) was 420 nM and the TGI (PC-3 prostate) was 30400 nM. For the same compound, the GI50 (RPMI-8226 leukemia) was 500 nM, the TGI (RPMI-8226 leukemia) was > 100000 nM and the GI50 (RXF 393 renal) was 317 nM. It also gave a TGI (RXF 393 renal) of 1840 nM, a GI50 (SF-268 CNS) of 1430 nM and a TGI (SF-268 CNS) of 34300 nM. The GI50 (SF-295 CNS) was 1610 nM, the TGI (SF-295 CNS) was 14600 nM and the GI50 (SF-539 CNS) was 663 nM. For the same compound, the TGI (SF-539 CNS) was 35700 nM, the GI50 (SK-MEL-2 melanoma) was 1200 nM and the TGI (SK-MEL-2 melanoma) was > 100000 nM. For the same compound, the GI50 (SK-MEL-28 melanoma) was 911 nM, the TGI (SK-MEL-28 melanoma) was > 100000 nM and the GI50 (SK-MEL-5 melanoma) was 1160 nM. It also gave a TGI (SK-MEL-5 melanoma) of 26600 nM, a GI50 (SK-OV-3 ovarian) of 354 nM and a TGI (SK-OV-3 ovarian) of 6430 nM. The GI50 (SN12C renal) was 516 nM, the TGI (SN12C renal) was > 88200 nM and the GI50 (SNB-19 CNS) was 2510 nM. The TGI (SNB-19 CNS) was 17000 nM, the GI50 (SNB-75 CNS) was 4020 nM and the TGI (SNB-75 CNS) was 16600 nM. The GI50 (SR leukemia) was 169 nM, the TGI (SR leukemia) was 2920 nM and the GI50 (SW-620 colon) was 717 nM. For the same compound, the TGI (SW-620 colon) was > 100000 nM, the GI50 (T-47D breast) was 524 nM and the TGI (T-47D breast) was > 70900 nM. It also gave a GI50 (TK-10 renal) of 486 nM, a TGI (TK-10 renal) of 11400 nM and a GI50 (U251 CNS) of 1060 nM. The TGI (U251 CNS) was 15700 nM, the GI50 (UACC-257 melanoma) was 3740 nM and the TGI (UACC-257 melanoma) was > 80400 nM. For the same compound, the GI50 (UACC-62 melanoma) was 749 nM, the TGI (UACC-62 melanoma) was > 62300 nM and the GI50 (UO-31 renal) was 239 nM. For the same compound, the TGI (UO-31 renal) was 21900 nM.
